For eight compounds, Classification and Kd results are on record in patent publication US20050282743A1, “Molecular interactions in cells” (Arbor Vita Corporation, priority 2001, published 2005).

Read-outs that look alike come from different tables or passages of the source. Peptide text beside a SMILES is read from it. * marks the point of attachment. Biotin = O=C1N[C@H]2[C@H](CS[C@H]2CCCCC(=O)*)N1

What all share (type): binding
The target of one experiment is T1, TIP1 (PDZ Domain 1) (Homo sapiens, UniProt O14907).
T1 construct: made in house; host or cells: E. coli (DH5alpha, BL21 or JM109)
The experiment can be described thus: G' assay and Kd titration, TABLE 12. The conditions noted are these: A450 nm class of biotinylated PL peptide bound; 0 in conc columns = peptide 10 uM, protein 5 ug/ml. How it is done:
The third column labeled “Peptide Optimal Concentration” in the tables is a number reflective of the binding interaction between the PL protein and PDZ protein. […] The column labeled “Protein Optimal Concentration” refers to the protein concentration used to assay PL interaction (in ug/ml); a ‘0’ is indicative of 5 ug/ml protein concentration; any other value represents the concentration (in ug/ml) used to determine the dissociation constant for a given interaction.
Finally, the seventh column labeled “Classification” is another measure of the level of binding. In particular, it provides an absorbance value at 450 nm which indicates the amount of PL peptide bound to the PDZ protein. […]
For convenience, the assay conditions described in this section are referred to as the “G′ assay” and the “G″ assay,” with the specific conditions described in the preceding section on G assays being referred to as the “G^0 assay.” The “G′ assay” is identical to the “G^0 assay” except at step (2) the peptide concentration is 10 uM instead of 20 uM. […] Correspondingly, it slightly increases the certainty that detected interactions are of sufficient affinity and half-life to be of biological importance and useful therapeutic targets.

Experiment [1] addresses T2, PDZ-domain polypeptide (GST/PDZ fusion protein) (Homo sapiens, UniProt Q12959).
T2 construct: made in house; host or cells: E. coli (DH5alpha, BL21 or JM109)
The experiment can be described thus: Apparent affinity (Kd) by titration of PL peptide in the G assay. In outline: (§1)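 A fixed concentration of GST/PDZ fusion protein, 5 ug/ml by default, was mixed in solution with increasing labeled PL peptide (e.g. 0.1 uM-1 mM). Reaction times ranged from 10 minutes to 2 days at 4-37° C. Complexes were separated from free peptide and detected via the label as in the G assay, apparent affinity coming from the saturating concentration.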

The target of experiment [2] is T3, PDZ-domain polypeptide (GST/PDZ fusion protein) (Homo sapiens, UniProt P78352).
T3 construct: made in house; host or cells: E. coli (DH5alpha, BL21 or JM109)
The experiment is described as above. Put shortly:
as §1

For experiment [3], the target named is T4, PDZ-domain polypeptide (GST/PDZ fusion protein) (Homo sapiens, UniProt Q15700).
T4 construct: made in house; host or cells: E. coli (DH5alpha, BL21 or JM109)
Described as above. The conditions noted are these: PDZ DLG2, PDZ Domain 2. In outline: as §1

Experiment [4] has as its target T5, PDZ-domain polypeptide (GST/PDZ fusion protein) (Homo sapiens, UniProt Q9NRD5).
T5 construct: made in house; host or cells: E. coli (DH5alpha, BL21 or JM109)
The experiment is described as above. The conditions noted are these: PDZ PICK1, PDZ Domain 1. In outline:
as §1

Where [5] appears, read: read-out: Peptide Optimal Conc (Kd by titration of the PL peptide).

T2 sequence (Q12959 whole entry, the tested form may be a part): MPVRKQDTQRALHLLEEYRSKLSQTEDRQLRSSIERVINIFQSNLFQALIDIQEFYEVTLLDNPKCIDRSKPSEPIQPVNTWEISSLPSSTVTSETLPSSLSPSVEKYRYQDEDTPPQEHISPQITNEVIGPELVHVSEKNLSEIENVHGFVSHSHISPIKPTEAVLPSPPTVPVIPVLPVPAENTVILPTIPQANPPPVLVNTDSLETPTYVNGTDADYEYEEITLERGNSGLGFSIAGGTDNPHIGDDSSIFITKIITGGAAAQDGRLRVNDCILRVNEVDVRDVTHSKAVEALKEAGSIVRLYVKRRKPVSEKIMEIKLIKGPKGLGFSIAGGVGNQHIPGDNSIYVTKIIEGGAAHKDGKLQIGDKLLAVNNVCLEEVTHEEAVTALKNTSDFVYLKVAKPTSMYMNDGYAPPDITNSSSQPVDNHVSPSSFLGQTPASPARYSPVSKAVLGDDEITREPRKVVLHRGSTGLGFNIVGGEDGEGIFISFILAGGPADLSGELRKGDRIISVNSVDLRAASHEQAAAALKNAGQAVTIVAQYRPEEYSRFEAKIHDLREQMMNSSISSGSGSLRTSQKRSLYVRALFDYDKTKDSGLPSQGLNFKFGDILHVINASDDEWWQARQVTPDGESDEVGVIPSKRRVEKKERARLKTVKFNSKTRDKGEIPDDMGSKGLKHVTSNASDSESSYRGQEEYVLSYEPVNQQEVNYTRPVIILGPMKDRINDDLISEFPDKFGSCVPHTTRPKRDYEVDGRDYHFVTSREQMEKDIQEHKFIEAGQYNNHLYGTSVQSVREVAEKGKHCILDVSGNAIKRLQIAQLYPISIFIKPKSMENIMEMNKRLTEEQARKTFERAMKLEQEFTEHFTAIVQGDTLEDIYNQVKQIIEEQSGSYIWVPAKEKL
T3 sequence (P78352 whole entry, the tested form may be a part): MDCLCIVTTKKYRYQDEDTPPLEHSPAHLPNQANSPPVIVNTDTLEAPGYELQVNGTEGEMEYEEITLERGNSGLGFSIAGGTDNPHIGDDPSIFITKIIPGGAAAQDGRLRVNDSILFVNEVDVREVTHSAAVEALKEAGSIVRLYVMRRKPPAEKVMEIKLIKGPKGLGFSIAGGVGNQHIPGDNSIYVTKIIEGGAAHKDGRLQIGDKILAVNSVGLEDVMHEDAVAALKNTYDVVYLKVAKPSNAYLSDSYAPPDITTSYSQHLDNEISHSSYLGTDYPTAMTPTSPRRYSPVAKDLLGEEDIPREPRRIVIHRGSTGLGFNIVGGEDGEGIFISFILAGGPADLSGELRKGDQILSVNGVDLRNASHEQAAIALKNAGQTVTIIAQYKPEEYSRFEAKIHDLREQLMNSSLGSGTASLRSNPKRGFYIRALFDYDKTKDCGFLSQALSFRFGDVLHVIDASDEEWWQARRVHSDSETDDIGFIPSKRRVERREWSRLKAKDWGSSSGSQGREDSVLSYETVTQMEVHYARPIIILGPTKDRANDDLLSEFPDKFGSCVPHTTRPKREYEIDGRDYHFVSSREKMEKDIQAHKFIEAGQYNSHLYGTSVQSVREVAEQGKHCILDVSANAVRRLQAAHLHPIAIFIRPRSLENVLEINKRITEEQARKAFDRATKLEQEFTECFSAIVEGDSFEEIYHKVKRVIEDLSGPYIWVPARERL
T5 sequence (Q9NRD5 whole entry, the tested form may be a part): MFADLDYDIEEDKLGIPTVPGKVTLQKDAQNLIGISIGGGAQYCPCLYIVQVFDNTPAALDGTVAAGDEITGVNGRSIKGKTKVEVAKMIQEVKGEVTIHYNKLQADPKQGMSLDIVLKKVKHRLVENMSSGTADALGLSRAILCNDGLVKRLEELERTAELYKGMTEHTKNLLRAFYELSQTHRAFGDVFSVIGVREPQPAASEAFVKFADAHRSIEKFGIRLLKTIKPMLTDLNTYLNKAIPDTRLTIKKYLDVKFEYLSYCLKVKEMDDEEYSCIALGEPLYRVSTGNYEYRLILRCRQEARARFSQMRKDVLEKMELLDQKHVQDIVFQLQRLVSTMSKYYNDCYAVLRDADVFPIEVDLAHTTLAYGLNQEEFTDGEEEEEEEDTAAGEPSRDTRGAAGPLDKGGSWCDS
T4 sequence (Q15700 whole entry, the tested form may be a part): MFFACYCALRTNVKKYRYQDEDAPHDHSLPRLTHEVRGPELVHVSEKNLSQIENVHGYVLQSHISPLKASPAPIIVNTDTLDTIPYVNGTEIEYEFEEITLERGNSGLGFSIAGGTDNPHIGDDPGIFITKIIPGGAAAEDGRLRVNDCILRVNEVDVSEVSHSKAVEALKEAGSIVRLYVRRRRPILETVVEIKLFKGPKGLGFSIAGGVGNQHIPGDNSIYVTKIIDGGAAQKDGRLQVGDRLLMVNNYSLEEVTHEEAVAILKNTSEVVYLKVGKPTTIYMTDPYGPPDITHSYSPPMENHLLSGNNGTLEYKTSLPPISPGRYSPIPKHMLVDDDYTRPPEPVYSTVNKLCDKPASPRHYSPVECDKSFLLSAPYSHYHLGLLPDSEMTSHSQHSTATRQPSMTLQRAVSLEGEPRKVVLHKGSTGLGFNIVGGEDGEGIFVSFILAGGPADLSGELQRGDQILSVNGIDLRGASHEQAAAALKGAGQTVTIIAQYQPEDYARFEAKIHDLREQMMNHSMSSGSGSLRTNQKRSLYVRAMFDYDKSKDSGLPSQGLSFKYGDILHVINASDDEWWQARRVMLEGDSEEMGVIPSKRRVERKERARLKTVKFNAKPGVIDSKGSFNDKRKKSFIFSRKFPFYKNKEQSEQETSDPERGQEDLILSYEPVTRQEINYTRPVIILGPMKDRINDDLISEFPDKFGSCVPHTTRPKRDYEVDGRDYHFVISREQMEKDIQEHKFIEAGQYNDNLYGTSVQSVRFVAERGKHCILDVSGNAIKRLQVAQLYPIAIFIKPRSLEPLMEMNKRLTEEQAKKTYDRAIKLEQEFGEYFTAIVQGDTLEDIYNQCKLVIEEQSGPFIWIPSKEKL
T1 sequence (O14907 14-116): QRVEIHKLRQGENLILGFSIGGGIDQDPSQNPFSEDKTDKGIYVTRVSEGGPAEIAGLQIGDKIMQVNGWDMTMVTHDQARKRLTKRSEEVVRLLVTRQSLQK

In the case of `CC[C@H](C)[C@H](NC(=O)[C@H](CCC(N)=O)NC(=O)CCCC[C@@H]1SC[C@@H]2NC(=O)N[C@@H]21)C(=O)N[C@@H](CO)C(=O)N1CCC[C@H]1C(=O)NCC(=O)NCC(=O)N[C@@H](CC(C)C)C(=O)N[C@@H](CCC(=O)O)C(=O)N1CCC[C@H]1C(=O)N1CCC[C@H]1C(=O)N[C@@H](CO)C(=O)N[C@@H](CCC(=O)O)C(=O)N[C@@H](CCCCN)C(=O)N[C@@H](Cc1c[nH]cn1)C(=O)N[C@@H](Cc1ccccc1)C(=O)N[C@@H](CCCNC(=N)N)C(=O)N[C@@H](CCC(=O)O)C(=O)N[C@H](C(=O)N[C@@H](CCC(=O)O)C(=O)N[C@H](C(=O)O)C(C)C)[C@@H](C)O` [Tax], on TIP1 (PDZ Domain 1), the Classification is listed as 5 (A450 nm of 4 more than 2× repeated).
With `CC[C@H](C)[C@H](NC(=O)[C@H](CCCCN)NC(=O)[C@@H](NC(=O)[C@H](CO)NC(=O)[C@@H]1CCCN1C(=O)[C@H](Cc1ccccc1)NC(=O)[C@@H](NC(=O)[C@@H](NC(=O)[C@H](CCCNC(=N)N)NC(=O)[C@H](CCC(=O)O)NC(=O)[C@H](CC(C)C)NC(=O)[C@H](CC(C)C)NC(=O)[C@H](CC(C)C)NC(=O)[C@@H](NC(=O)CNC(=O)[C@@H](NC(=O)CCCC[C@@H]1SC[C@@H]2NC(=O)N[C@@H]21)C(C)C)[C@@H](C)O)C(C)C)[C@@H](C)CC)C(C)C)C(=O)N[C@@H](C)C(=O)N[C@H](C(=O)N[C@@H](CC(C)C)C(=O)N[C@H](C(=O)O)C(C)C)[C@@H](C)O` [Adenovirus E4 Type9], the Kd was determined as 100 nM in experiment [1] (PDZ DLG1, PDZ Domain 1, Protein Optimal Conc 0.5, read-out: Peptide Optimal Conc (Kd by titration of the PL peptide)); 30 nM in experiment [1] (PDZ DLG1, PDZ Domain 2, Protein Optimal Conc 0.3, read-out: Peptide Optimal Conc (Kd by titration of the PL peptide)); 100 nM in experiment [2] (PDZ PSD95, PDZ Domain 1, Protein Optimal Conc 5, read-out: Peptide Optimal Conc (Kd by titration of the PL peptide)); 50 nM in experiment [3] (Protein Optimal Conc 0.5).
`CC[C@H](C)[C@H](NC(=O)[C@H](C)NC(=O)[C@H](CC(C)C)NC(=O)[C@H](Cc1c[nH]c2ccccc12)NC(=O)[C@H](Cc1c[nH]cn1)NC(=O)[C@H](CCC(N)=O)NC(=O)[C@H](CC(C)C)NC(=O)[C@H](CCC(N)=O)NC(=O)[C@H](Cc1ccccc1)NC(=O)[C@H](CCC(N)=O)NC(=O)[C@H](CCCNC(=N)N)NC(=O)[C@@H](NC(=O)[C@H](CC(=O)O)NC(=O)[C@H](CCCNC(=N)N)NC(=O)[C@H](CCC(N)=O)NC(=O)[C@H](C)NC(=O)[C@@H](NC(=O)[C@H](CC(C)C)NC(=O)[C@H](Cc1c[nH]cn1)NC(=O)[C@H](Cc1c[nH]cn1)NC(=O)CCCC[C@@H]1SC[C@@H]2NC(=O)N[C@@H]21)C(C)C)[C@@H](C)CC)C(=O)O` [noradrenaline transporter] (Biotin-HHLVAQRDIRQFQLQHWLAI-OH; C-terminus assumed): in experiment [4] (Peptide Optimal Conc (Kd by titration of the PL peptide)), the Kd was 1000 nM.
Take `CC(C)C[C@H](NC(=O)[C@H](C)NC(=O)[C@@H](NC(=O)[C@@H](NC(=O)[C@H](Cc1c[nH]cn1)NC(=O)[C@H](CC(C)C)NC(=O)CNC(=O)[C@H](CCC(N)=O)NC(=O)CNC(=O)CNC(=O)[C@H](C)NC(=O)[C@H](C)NC(=O)[C@H](CCCNC(=N)N)NC(=O)[C@H](C)NC(=O)[C@H](CO)NC(=O)[C@H](CC(=O)O)NC(=O)[C@H](CC(=O)O)NC(=O)[C@H](Cc1c[nH]c2ccccc12)NC(=O)[C@H](C)NC(=O)CCCC[C@@H]1SC[C@@H]2NC(=O)N[C@@H]21)C(C)C)[C@@H](C)O)C(=O)O` [LPAP] (Biotin-AWDDSARAAGGQGLHVTAL-OH; C-terminus assumed): on TIP1 (PDZ Domain 1), the Classification is 5 (A450 nm of 4 more than 2× repeated).
Turning to `CC[C@H](C)[C@H](NC(=O)[C@H](CCC(=O)O)NC(=O)[C@H](CO)NC(=O)[C@H](CCC(=O)O)NC(=O)[C@H](CCCNC(=N)N)NC(=O)[C@H](CCCNC(=N)N)NC(=O)[C@H](CC(C)C)NC(=O)[C@@H]1CCCN1C(=O)[C@H](CCCNC(=N)N)NC(=O)[C@@H]1CCCN1C(=O)[C@H](CCC(=O)O)NC(=O)[C@H](CC(C)C)NC(=O)[C@@H]1CCCN1C(=O)[C@@H](NC(=O)[C@H](CO)NC(=O)[C@H](C)NC(=O)[C@H](CCC(N)=O)NC(=O)[C@H](CC(N)=O)NC(=O)[C@H](Cc1c[nH]cn1)NC(=O)[C@H](CC(C)C)NC(=O)CCCC[C@@H]1SC[C@@H]2NC(=O)N[C@@H]21)C(C)C)C(=O)O` [Kir2.1 (inwardly rect. K+ channel)] (Biotin-LHNQASVPLEPRPLRRESEI-OH; C-terminus assumed), in experiment [1] (PDZ DLG1, PDZ Domain 1, 2, titration of the PL peptide, read-out: Peptide Optimal Conc (Kd, dissociation constant)), the Kd was 5000 nM.
With `CSCC[C@H](NC(=O)[C@H](C)NC(=O)[C@H](CCCNC(=N)N)NC(=O)CNC(=O)[C@@H](NC(=O)[C@H](Cc1c[nH]c2ccccc12)NC(=O)[C@H](CCCNC(=N)N)NC(=O)CNC(=O)CCCC[C@@H]1SC[C@@H]2NC(=O)N[C@@H]21)[C@@H](C)O)C(=O)N[C@@H](CO)C(=O)N[C@@H](C)C(=O)N[C@@H](Cc1c[nH]c2ccccc12)C(=O)N[C@@H](CCCCN)C(=O)N1CCC[C@H]1C(=O)N[C@H](C(=O)N[C@@H](CCCNC(=N)N)C(=O)N[C@@H](CCCNC(=N)N)C(=O)N[C@@H](CCC(=O)O)C(=O)N[C@H](C(=O)N[C@@H](CCC(=O)O)C(=O)N[C@H](C(=O)O)C(C)C)[C@@H](C)O)[C@@H](C)O` [HPV E6 #35 (modified)] (Biotin-GRWTGRAMSAWKPTRRETEV-OH; C-terminus assumed), in experiment [3] (setting [5]), the Kd was found to be 200 nM.
`CC[C@H](C)[C@H](NC(=O)[C@H](CO)NC(=O)[C@@H](NC(=O)[C@H](Cc1ccccc1)NC(=O)[C@H](CO)NC(=O)CCCC[C@@H]1SC[C@@H]2NC(=O)N[C@@H]21)[C@@H](C)O)C(=O)N[C@@H](CC(C)C)C(=O)N[C@H](C(=O)N[C@@H](CS)C(=O)N[C@@H](Cc1c[nH]cn1)C(=O)N[C@@H](CCC(N)=O)C(=O)N[C@@H](CCCNC(=N)N)C(=O)N[C@@H](CCCNC(=N)N)C(=O)N[C@H](C(=O)N[C@@H](CCC(N)=O)C(=O)N[C@@H](CCCNC(=N)N)C(=O)N[C@@H](CCCCN)C(=O)N[C@@H](CCC(=O)O)C(=O)N[C@H](C(=O)N[C@H](C(=O)N[C@@H](C)C(=O)O)C(C)C)[C@@H](C)O)[C@@H](C)O)[C@@H](C)O` [GluR5-2 (rat)]: the Kd in experiment [2] (PDZ PSD95, PDZ Domain 3, titration of the PL peptide, read-out: Peptide Optimal Conc (Kd, dissociation constant)) was found to be 100 nM.
Turning to `CC(C)C[C@H](NC(=O)[C@H](Cc1c[nH]c2ccccc12)NC(=O)[C@H](Cc1c[nH]cn1)NC(=O)[C@H](CCCNC(=N)N)NC(=O)[C@H](CC(C)C)NC(=O)[C@@H](NC(=O)[C@H](Cc1ccccc1)NC(=O)[C@H](CCC(N)=O)NC(=O)[C@H](CCCNC(=N)N)NC(=O)[C@@H](NC(=O)[C@H](CCC(=O)O)NC(=O)CNC(=O)[C@H](CCCNC(=N)N)NC(=O)[C@H](CC(=O)O)NC(=O)[C@@H](NC(=O)[C@H](CC(C)C)NC(=O)[C@H](CCC(=O)O)NC(=O)[C@H](CCCNC(=N)N)NC(=O)CCCC[C@@H]1SC[C@@H]2NC(=O)N[C@@H]21)C(C)C)C(C)C)[C@@H](C)O)C(=O)N[C@@H](CCCCN)C(=O)N[C@H](C(=O)O)C(C)C` [Dopamine transporter (Na+-dependent)] (Biotin-RELVDRGEVRQFTLRHWLKV-OH; C-terminus assumed), in experiment [4] (setting [5]), the Kd was determined as 900 nM.
